Assays:
[1] = test system: mice, abstinence syndrome induced by cocaine, diazepam, alcohol or nicotine; test: light box/dark box test: inhibition of the abstinence syndrome; type: in vivo, mouse; set-up: Time in box, dark (D) / Latent period L-D: unit not given here
Experimental: The light box/dark box test described by B. Costall et al. (J. Phar. Pharmacol., 1988, 40: 494-500) is used. The mouse is placed in the light zone of a box divided into two compartments, one brightly illuminated, the light box, and the other with little illumination, the dark box.
1) The number of times the mouse stands up on the hind paws in each compartment during a 5 minute period is counted (see Column 1 of Table V).
2) The activity in each compartment is given by counting the number of crossings through the squares which form the divisions of each compartment (see Column 2 of Table V).
3) The time passed in the dark box during the 5 minute counting period is determined (see Column 3 of Table 5).
4) The initial latent period is determined, that is to say the time which elapses after the animal is placed in the light box, at the start of the test, before it enters the dark box (see Column 4 of Table 5).
1) Dependency on a given treatment (diazepam, cocaine, alcohol or nicotine) employing daily administration over a period of 7 or 14 days.
Diazepam: 10 mg/kg i.p. twice per day over a period of 7 days.
Cocaine: 1 mg/kg i.p. over a period of 14 days.
Alcohol: Administered at 8% weight/volume in the drinking water over a period of 14 days. Nicotine: 0.1 mg/kg i.p. twice per day over a period of 7 days.
3) Other different groups receive, in addition to diazepam, cocaine, alcohol or nicotine, a concomitant treatment with products which are the subject of the present invention and, by way of comparison, with buspirone or ipsapirone.
The product described and the doses tested were: 4,5-dichloro-2-methyl-1-{4-[4-(2-pyrimidinyl)-1-piperazinyl]-butyl}-1H-imidazole citrate.
1 μg/kg p.o. twice per day.

[2] = test system: conditioned avoidance response in male Wistar rats; test: conditioned avoidance response test (inhibition of the conditioned avoidance response; anxiolytic/tranquillising activity); type: in vivo, rat (male Wistar); conditions: rat
Procedure, shortened: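 Male Wistar rats (200 g) trained over three days in a shuttle box to jump a barrier within 30 s to avoid foot shock (5 mA); only rats meeting a training score threshold used. Compound or vehicle given orally 45 min before testing; suppression of conditioned avoidance recorded.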

[3] = test system: norepinephrine-induced death in rats; test: norepinephrine antagonism test in rats (antihypertensive activity); type: in vivo, rat (male Wister); conditions: D = 40 mg/kg, i.p.; rat; norepinephrine 1.25 mg/kg i.v. after 2 hours
Experimental: This activity is manifested by the protection of animals before death induced by an intravenous injection of norepinephrine, which produces a hypertensive attack in rats.
Male Wister rats weighing 200 grammes are used in this test. The product to be studied is administered intraperitoneally and 1.25 mg/kg (i.v.) of norepinephrine are administered after 2 hours.
The initial administration dose in these studies is 40 mg/kg (i.p.).

[4] = 24 h after stopping alcohol (alone, or with the named product; Ex. 42 at 1 μg/kg p.o. twice per day)
[5] = 24 h after stopping cocaine (alone, or with the named product; Ex. 42 at 1 μg/kg p.o. twice per day)
[6] = 24 h after stopping diazepam (alone, or with the named product; Ex. 42 at 1 μg/kg p.o. twice per day)
[7] = 24 h after stopping nicotine (alone, or with the named product; Ex. 42 at 1 μg/kg p.o. twice per day)

Q: What does the source list for `Cc1nc(Cl)c(Cl)n1CCCCN1CCN(c2ncccn2)CC1.O=C(O)CC(O)(CC(=O)O)C(=O)O` [Example 42, 4,5-dichloro-2-methyl-1-{4-[4-(2-pyrimidinyl)-1-piperazinyl]-butyl}-1H-imidazole citrate]?
A: Activity within 5 min period, dark box (D) [1, 4]: 23; Activity within 5 min period, light box (L) [1, 4]: 97; Latent period L-D [1, 4]: 20; Number of times standing erect within 5 min. period, dark box (D) [1, 4]: 17; Number of times standing erect within 5 min. period, light box (L) [1, 4]: 86; Time in box, dark (D) [1, 4]: 26; Activity within 5 min period, dark box (D) [1, 5]: 23; Activity within 5 min period, light box (L) [1, 5]: 92; Latent period L-D [1, 5]: 26; Number of times standing erect within 5 min. period, dark box (D) [1, 5]: 20; Number of times standing erect within 5 min. period, light box (L) [1, 5]: 86; Time in box, dark (D) [1, 5]: 30; Activity within 5 min period, dark box (D) [1, 6]: 19; Activity within 5 min period, light box (L) [1, 6]: 96; Latent period L-D [1, 6]: 28; Number of times standing erect within 5 min. period, dark box (D) [1, 6]: 17; Number of times standing erect within 5 min. period, light box (L) [1, 6]: 85; Time in box, dark (D) [1, 6]: 36; Activity within 5 min period, dark box (D) [1, 7]: 20; Activity within 5 min period, light box (L) [1, 7]: 102; Latent period L-D [1, 7]: 23; Number of times standing erect within 5 min. period, dark box (D) [1, 7]: 18; Number of times standing erect within 5 min. period, light box (L) [1, 7]: 90; Time in box, dark (D) [1, 7]: 29; anxiolytic response when the administration is stopped ([1]; diazepam, cocaine, alcohol or nicotine stopped, 1 μg/kg p.o. twice per day): maintains a significant anxiolytic response; inhibition of the abstinence syndrome ([1]; induced by diazepam, cocaine, alcohol and nicotine, 1 μg/kg p.o. twice per day): inhibits the abstinence syndrome; Activity % (inhibition of the conditioned avoidance response) ([2]; D = 80 mg/kg, p.o., 45 min before test): 82%; ED50 ([2]; po, 0.75 h): 24.5 mg/kg; Activity % (norepinephrine antagonistic antihypertensive activity) [3]: 0%
